One block for each molecule: values may come before it. The source made the active and inactive calls. The rule behind the calls is not given here.
Legend:
[1] = tested on: Candida albicans; assay: Antifungal activity against Candida albicans assessed as inhibition of microbial growth by two fold broth microdilution method; assay type: functional
[2] = tested on: Pichia kudriavzevii; assay: Antifungal activity against Candida krusei assessed as inhibition of microbial growth by two fold broth microdilution method; assay type: functional
[3] = tested on: Nakaseomyces glabratus; assay: Antifungal activity against Candida glabrata assessed as inhibition of microbial growth by two fold broth microdilution method; assay type: functional
[4] = tested on: Aspergillus fumigatus; assay: Antifungal activity against Aspergillus fumigatus assessed as inhibition of microbial growth by two fold broth microdilution method; assay type: functional
[5] = tested on: Candida tropicalis; assay: Antifungal activity against Candida tropicalis assessed as inhibition of microbial growth by two fold broth microdilution method; assay type: functional
[6] = tested on: Candida albicans; assay: Antifungal activity against fluconazole-resistant Candida albicans 17# assessed as inhibition of microbial growth by two fold broth microdilution method; assay type: functional
[7] = tested on: Candida albicans; assay: Antifungal activity against fluconazole-resistant Candida albicans CaR assessed as inhibition of microbial growth by two fold broth microdilution method; assay type: functional
[8] = tested on: Candida albicans; assay: Antifungal activity against fluconazole-resistant Candida albicans 632 assessed as inhibition of microbial growth by two fold broth microdilution method; assay type: functional
[9] = tested on: Candida albicans; assay: Antifungal activity against fluconazole-resistant Candida albicans 901 assessed as inhibition of microbial growth by two fold broth microdilution method; assay type: functional
[10] = tested on: Candida albicans; assay: Antifungal activity against fluconazole-resistant Candida albicans 904 assessed as inhibition of microbial growth by two fold broth microdilution method; assay type: functional
[11] = tested on: Candida albicans; assay: Antifungal activity against Candida albicans ATCC SC5314 assessed as decrease in fungal cell density by polarizing microscopy; assay type: functional, organism-based
[12] = tested on: Candida albicans; assay: Antifungal activity against Candida albicans ATCC SC5314 assessed as irregular cell structure at 4 ug/ml incubated for 72 hrs by TEM analysis; assay type: functional, organism-based; conditions: dose 4.0 µg/ml
[13] = tested on: Candida albicans; assay: Antifungal activity against Candida albicans ATCC SC5314 assessed as disappearance of fungal cell boundaries at 4 ug/ml incubated for 72 hrs by TEM analysis; assay type: functional, organism-based; conditions: dose 4.0 µg/ml
[14] = tested on: Candida albicans; assay: Antifungal activity against Candida albicans ATCC SC5314 assessed as loss of cell permeability at 4 ug/ml incubated for 72 hrs by TEM analysis; assay type: functional, organism-based; conditions: dose 4.0 µg/ml
[15] = tested on: Candida albicans; assay: Antifungal activity against Candida albicans ATCC SC5314 assessed as leakage of endogenous substances at 4 ug/ml incubated for 72 hrs by TEM analysis; assay type: functional, organism-based; conditions: dose 4.0 µg/ml
[16] = tested on: Candida albicans; assay: Antifungal activity against Candida albicans ATCC SC5314 assessed as vesicles formation at 4 ug/ml incubated for 72 hrs by TEM analysis; assay type: functional, organism-based; conditions: dose 4.0 µg/ml
[17] = tested on: Candida albicans; assay: Antifungal activity against Candida albicans ATCC SC5314 assessed as edema cavitation at 4 ug/ml incubated for 72 hrs by TEM analysis; assay type: functional, organism-based; conditions: dose 4.0 µg/ml
[18] = tested on: Candida albicans; assay: Antifungal activity against Candida albicans ATCC SC5314 assessed as nuclear membrane cleavage at 4 ug/ml incubated for 72 hrs by TEM analysis; assay type: functional, organism-based; conditions: dose 4.0 µg/ml
[19] = tested on: Candida albicans; assay: Antifungal activity against Candida albicans ATCC SC5314 assessed as cell lysis at 4 ug/ml […] by TEM analysis; assay type: functional, organism-based; conditions: dose 4.0 µg/ml
[20] = tested on: Candida albicans SC5314; assay: Inhibition of SE/CYP51 in Candida albicans ATCC SC5314 assessed as ergosterol level at 4 ug/ml incubated for 16 hrs by LC/MS analysis (reference value: 79.43 %); design: scale not given: the % may be the effect or the level left; conditions: dose 4.0 µg/ml
[21] = tested on: Candida albicans SC5314; assay: Inhibition of SE/CYP51 in Candida albicans ATCC SC5314 assessed as lanosterol level at 4 ug/ml incubated for 16 hrs by LC/MS analysis (reference value: 6.62 %); design: scale not given: the % may be the effect or the level left; conditions: dose 4.0 µg/ml
[22] = tested on: Candida albicans SC5314; assay: Inhibition of SE/CYP51 in Candida albicans ATCC SC5314 assessed as eburicol level at 4 ug/ml incubated for 16 hrs by LC/MS analysis (reference value: 4.67 %); design: scale not given: the % may be the effect or the level left; conditions: dose 4.0 µg/ml
[23] = tested on: Candida albicans SC5314; assay: Inhibition of SE/CYP51 in Candida albicans ATCC SC5314 assessed as squalene level at 4 ug/ml incubated for 16 hrs by LC/MS analysis (reference value: 2.25 %); design: scale not given: the % may be the effect or the level left; conditions: dose 4.0 µg/ml
[24] = tested on: Candida albicans SC5314; assay: Inhibition of SE/CYP51 in Candida albicans ATCC SC5314 assessed as unidentified sterol level at 4 ug/ml incubated for 16 hrs by LC/MS analysis (reference value: 7.03 %); design: scale not given: the % may be the effect or the level left; conditions: dose 4.0 µg/ml
[25] = Stability in human plasma incubated for 60 mins; assay type: ADME, cell-free; conditions: read-out: Stabilty
[26] = Stability in human plasma incubated for 120 mins; assay type: ADME, cell-free; conditions: read-out: Stabilty
[27] = tested on: Candida albicans; assay: In vivo antifungal activity against Candida albicans infected in mouse assessed as reduction in tissue infection injected via abdomen for 7 days by H and E staining based histological analysis; assay type: functional, organism-based; conditions: time 7.0 day
[28] = tested on: Candida albicans; assay: In vivo antifungal activity against Candida albicans infected in mouse assessed as uniform cell distribution injected via abdomen for 7 days by H and E staining based histological analysis; assay type: functional, organism-based; conditions: time 7.0 day
[29] = tested on: Candida albicans; assay: In vivo antifungal activity against Candida albicans infected in mouse assessed as disappearance of infected positions injected via abdomen for 7 days by H and E staining based histological analysis; assay type: functional, organism-based; conditions: time 7.0 day
[30] = tested on: Candida albicans; assay: In vivo antifungal activity against Candida albicans infected in mouse assessed as disappearance of cell nuclear aggregation injected via abdomen for 7 days by H and E staining based histological analysis; assay type: functional, organism-based; conditions: time 7.0 day
[31] = Toxicity in mouse infected with Candida albicans assessed as change in body weight administered via abdomen for 7 days; conditions: in vivo, ip, 168 h, time 7 day
[32] = Toxicity in mouse infected with Candida albicans assessed as change in heart morphology administered via abdomen for 7 days by H and E staining based histological analysis; conditions: in vivo, ip, 168 h, time 7 day
[33] = Toxicity in mouse infected with Candida albicans assessed as change in liver morphology administered via abdomen for 7 days by H and E staining based histological analysis; conditions: in vivo, ip, 168 h, time 7 day
[34] = Toxicity in mouse infected with Candida albicans assessed as change in spleen morphology administered via abdomen for 7 days by H and E staining based histological analysis; conditions: in vivo, ip, 168 h, time 7 day
[35] = Toxicity in mouse infected with Candida albicans assessed as change in kidney morphology administered via abdomen for 7 days by H and E staining based histological analysis; conditions: in vivo, ip, 168 h, time 7 day
[36] = Toxicity in mouse infected with Candida albicans assessed as change in lung morphology administered via abdomen for 7 days by H and E staining based histological analysis; conditions: in vivo, ip, 168 h, time 7 day
[37] = Hepatotoxicity in mouse infected with Candida albicans assessed as aspartate aminotransferase level in plasma administered via abdomen for 7 days (reference value: 109.4 +/-4.8 IU/L); assay type: toxicity; conditions: ip, 168 h, time 7 day
[38] = Hepatotoxicity in mouse infected with Candida albicans assessed as effect on alanine aminotransferase level in plasma administered via abdomen for 7 days (reference value: 102 +/-9.2 IU/L); assay type: toxicity; conditions: ip, 168 h, time 7 day
[39] = Renal toxicity in mouse infected with Candida albicans assessed as effect on blood urea nitrogen level administered via abdomen for 7 days (reference value: 6.7 +/-0.3 mmol/L); conditions: in vivo, ip, 168 h, time 7 day

SMILES: CN(C/C=C/c1ccccc1)Cc1cccc2ccccc12 [NAFTIFINE]
MIC [1]: 0.5 µg/mL
MIC [2]: 0.5 µg/mL
MIC [3]: 1 µg/mL
MIC [4]: 4 µg/mL
MIC [5]: 2 µg/mL
MIC [6]: 8 µg/mL
MIC [7]: > 16 µg/mL
MIC [8]: 8 µg/mL
MIC [9]: > 16 µg/mL
MIC [10]: 8 µg/mL
Activity [11]: Active

SMILES: O=C(/C=C/c1cccc2ccccc12)NCC(=O)NCc1cccnc1
MIC [1]: 0.5 µg/mL
MIC [2]: 1 µg/mL
MIC [3]: 1 µg/mL
MIC [4]: 8 µg/mL
MIC [5]: 0.5 µg/mL

SMILES: O=C(/C=C/c1cccc2ccccc12)NCC(=O)NCc1ccncc1
MIC [1]: 0.25 µg/mL
MIC [2]: 0.5 µg/mL
MIC [3]: 0.25 µg/mL
MIC [4]: 4 µg/mL
MIC [5]: 0.25 µg/mL

SMILES: O=C(NCc1ccncc1)C(=O)N/N=C/c1cccc2ccccc12
MIC [1]: 0.125 µg/mL
MIC [2]: 0.5 µg/mL
MIC [3]: 0.25 µg/mL
MIC [4]: 2 µg/mL
MIC [5]: 0.125 µg/mL
MIC [6]: 4 µg/mL
MIC [7]: 4 µg/mL
MIC [8]: 8 µg/mL
MIC [9]: 4 µg/mL
MIC [10]: 8 µg/mL
Activity [11]: Active
Activity [12]: Active
Activity [13]: Active
Activity [14]: Active
Activity [15]: Active
Activity [16]: Active
Activity [17]: Active
Activity [18]: Active
Activity [19]: Active
Activity [20]: 8.27%
Activity [21]: 11.3%
Activity [22]: 32.8%
Activity [23]: 42.9%
Activity [24]: 4.71%
remaining at 1 h [25]: 92.3%
remaining at 2 h [26]: 86.5%
Activity [27]: Active
Activity [28]: Active
Activity [29]: Active
Activity [30]: Active
Activity [31]: Non-Toxic
Activity [32]: Non-Toxic
Activity [33]: Non-Toxic
Activity [34]: Non-Toxic
Activity [35]: Non-Toxic
Activity [36]: Non-Toxic
Activity [37]: 112.7 IU/L
Activity [38]: 117 IU/L
Activity [39]: 7.1 mmol/L

SMILES: O=C(/C=C/c1cccc2ccccc12)NC(Cn1ccnc1)C(=O)NCc1ccccc1 (stereo not given)
MIC [1]: 0.5 µg/mL
MIC [2]: 2 µg/mL
MIC [3]: 0.5 µg/mL
MIC [4]: > 16 µg/mL
MIC [5]: 0.5 µg/mL

SMILES: O=C(/C=C/c1ccc2ccccc2c1)NC(Cn1ccnc1)C(=O)NCc1ccccc1 (stereo not given)
MIC [1]: 2 µg/mL
MIC [2]: 4 µg/mL
MIC [3]: 0.5 µg/mL
MIC [4]: 8 µg/mL
MIC [5]: 0.5 µg/mL

Now from value to molecule:

MIC [1]: 2 µg/mL
MIC [2]: 4 µg/mL
MIC [3]: 0.5 µg/mL
MIC [4]: > 16 µg/mL
MIC [5]: 0.5 µg/mL
SMILES: CN(CC(=O)NCc1cccnc1)C(=O)/C=C/c1ccc2c(c1)OCCO2

MIC [1]: 0.5 µg/mL
MIC [2]: 0.5 µg/mL
MIC [3]: 1 µg/mL
MIC [4]: > 16 µg/mL
MIC [5]: 1 µg/mL
SMILES: CN(CC(=O)NCc1cccnc1)C(=O)/C=C/c1ccc2ccccc2c1

MIC [1]: 0.5 µg/mL
MIC [2]: 2 µg/mL
MIC [3]: 1 µg/mL
MIC [4]: > 16 µg/mL
MIC [5]: 0.5 µg/mL
SMILES: O=C(/C=C/c1ccc2c(c1)OCCO2)NC(Cn1ccnc1)C(=O)NCc1ccccc1 (stereo not given)

MIC [1]: 0.5 µg/mL
MIC [2]: 0.25 µg/mL
MIC [3]: 0.5 µg/mL
MIC [4]: > 16 µg/mL
MIC [5]: 0.5 µg/mL
SMILES: O=C(NCc1cccnc1)C(=O)N/N=C/c1cccc2ccccc12

MIC [1]: 0.5 µg/mL
MIC [2]: 2 µg/mL
MIC [3]: 0.5 µg/mL
MIC [4]: > 16 µg/mL
MIC [5]: 1 µg/mL
SMILES: O=C(NCc1cccnc1)C(=O)N/N=C/c1ccc2c(c1)OCCO2

MIC [1]: 2 µg/mL
MIC [2]: 4 µg/mL
MIC [3]: 4 µg/mL
MIC [4]: > 16 µg/mL
MIC [5]: 2 µg/mL
SMILES: O=C(/C=C/c1ccc2c(c1)OCCO2)NCC(=O)NCc1cccnc1

Source: ChEMBL document CHEMBL4765419, “Design, synthesis and bioactivity evaluation of novel arylalkene-amide derivatives as dual-target antifungal inhibitors” (Eur J Med Chem, 2020)
